One data set has as its target T1, M1 mAChR (Homo sapiens, UniProt P11229).
T1 construct: expressed in transfected cells
The experiment in a line: Arachidonic acid (AA) release, M1. Type of data set: cell-based.

The next data set addresses T2, rat M1 mAChR (Rattus norvegicus, UniProt P08482).
T2 construct: expressed in transfected cells; host or cells: probably the rat pheochromocytoma cells transfected with M1 mAChR
The experiment in a line: PI turnover, rat M1 mAChR. Format: cell-based.

Another data set concerns aged rats. Nature of the data set: Morris water maze in aged rats. Type of data set: in vivo, Sprague-Dawley rats. The conditions noted are these: for Reversal learning: AF267B 1 mg/kg, AF292 1 and 0.5 mg/kg, po. The text has this: Old (22–24 months old) and young (three months old) Sprague-Dawley rats had been tested in the MWM.
Data set [1] is described as follows: Metabolic stability, dog liver microsomes. Type of data set: in vitro ADME. The note with it: read-out: Metabolic Stability T1/2. The method, then: The metabolic stability of AF292 was evaluated by monitoring its disappearance while incubated with rat, […], monkey, and human hepatic microsomes. Testosterone, and propranolol were run as assay controls.
Data set [2] addresses Human serum albumin (HSA) (Homo sapiens, UniProt P02768). The experiment in a line: Protein binding, human serum albumin. Type of data set: in vitro ADME. The note with it: 10 μM. The method, then: Protein binding studies were carried out in human plasma, α1-glycoprotein, human serum albumin (HSA), and Dulbecco's Phosphate Buffered Saline (PBS). AF292 was added to a final concentration of 10 μM. […] (μM) and in human […] (AGP), (see Table 1).

Data set [3] can be described thus: Pharmacokinetic study in dogs. Format: in vivo. The conditions noted are these: beagle, dog, plasma. The source says:
The results of the PK profile of AF292 in rats and Beagle dogs (overnight fasting; drug administered in water solution; gavage) are listed in Table 1.

Another data set relates to AF64A-injected rats. Nature of the data set: Passive avoidance in AF64A-treated rats. The conditions noted are these: for Retention latency: 72 h after training; for Minimal effective dose: p.o.
Another data set relates to tau protein. The experiment in a line: tau-1 immunoreactivity in primary cell cultures (western blot). Format: cell-based, rat. The note with it: 1–100 μM, cortical and hippocampal cell cultures. The method, then: Primary cell cultures were grown as described in EXAMPLE 38. Cell supernatants were removed and the cells were washed once in medium prior to the addition of cold phosphate buffre saline ph=7.4 (PBS) solution containing 0.2 mM EDTA. Cells were scraped using a rubber policeman, transferred to Eppendorf tubes, and centrifuged at 4° C. Cell pellets were resuspended in lysis buffer (EDTA 5 mM, Tris 50 mM, Triton 1%, NaCl 150 mM) containing protease inhibitors (5 units/ml apronitin, […] and 0.1 mM PMSF, Sigma) and subjected to centrifugation at 4° C. Supernatants were transferred into Eppendorf tubes and kept at −20° C. till analyzed. The extent of tau-1 immunoreactivity (an antibody that recognizes a non-phosphorylated tau at Ser^199) was determined by western blots.

The test system of data set [4] is mice with closed head injury. Nature of the data set: Closed head injury in mice, neurological severity score. Format: in vivo. The conditions noted are these: for Balance test (beam walk): 80% in control. The method, then: Closed head injury (CHI) was induced in mice as described in Chen et al, J Neurotrauma, 15: 231–237, 1998. Neurological severity scores (NSS) were assessed using a battery of 10 parameters (10=worst outcome, 0=normal function). The compounds tested (1 mg compound/kg body weight) vs. placebo-treated animals were injected ip 5 min after CHI vs. placebo-treated animals. Treated mice were evaluated at 1 h, to determine the severity of injury, and at 24 and 48 h to determine recovery. The NSS was as follows: 1. […] 2.

Another data set deals with C57BL/10SnJ (B10) mice. Nature of the data set: Morris water maze in small hippocampus mice. Type of data set: in vivo. The conditions noted are these: for Training, escape latency: 0.5 and 1 mg/kg i.p. (rivastigmine, nicotine 1 mg/kg); for Training, path length: AF150(S) both doses, AF267B the higher dose; for Reversal test, escape latency / Training, swimming speed / Transfer test, spatial bias: mouse, in vivo. The method, then:
C57BL/10SnJ (B10) mice were selected due to their small hippocampi and decreased number of hippocampal pyramidal neurons; the cell loss seemed to be associated with poor spatial learning.
Each group of mice was randomly divided into 7 treatment groups (n=12-14/group). […] All tested compounds and saline were administered once a day for 4 days before starting the behavioral testing, and then for the duration of the 5-day experiment, 30 minutes before testing.
Training: Each mouse was trained for four consecutive days, four trials (one block) per day, in which the platform position remained constant and was located in the center of the southeast quadrant of the pool. Within each block of four trials, each mouse started at each of the starting locations, but the sequence of locations was randomly selected. A trial consisted of placing a mouse by hand into the water facing the wall of the pool at one of four starting locations, north, south, east or west, around the pool's perimeter. Escape latency (the time to find the platform), path length (the distance traveled by the mouse) and speed (the swimming rate of the mouse) were recorded on each trial by the monitoring system.
For each mouse, the path length, escape latency, and swimming speed of the four trials on each of the 4 training days were grouped into blocks (one block for each day). […] Specific comparisons were performed, using the simple main effects contrasts acalysis, which is specifically suited for testing significant interactions.
Transfer test. During trial No. 17, on the fourth day, the platform was entirely removed from the pool (a probe trial). In this trial, the mouse was placed into the water for a limited period (30 s), and its spatial bias was measured by recording the relative distribution of escape latency and path length over the four quadrants of the pool.
Reversal test. During trials 18–21, on the fifth day, the platform position was changed to the northwest quadrant, opposite to the training quadrant. Thus, during reversal learning, the platform location was moved relative to the configuration of objects within the room, but the pool occupied the same place within the room throughout the entire experiment. Testing of the rats and measures taken were the same as in training.
For each mouse, the escape latency, path length and swimming speed of the reversal test (trials No. 18–21) were grouped into one block.

A further data set in a line: in vivo. The conditions noted are these: mouse.
Setting [5] is: 1 mg/kg ip 5 min after CHI, 1 h.
[6] abbreviates: oral, Dogs, extrapolated for 5 mg/kg.

One may read the AUC(0-inf) as the area under the concentration-time curve extrapolated to infinity. Usually Cmax stands for the maximum level reached in the sampled fluid or tissue. The MRT is the average time that molecules of a dose stay in the body. The Tmax is the time from dosing to the highest level.

T1 sequence (P11229 whole entry): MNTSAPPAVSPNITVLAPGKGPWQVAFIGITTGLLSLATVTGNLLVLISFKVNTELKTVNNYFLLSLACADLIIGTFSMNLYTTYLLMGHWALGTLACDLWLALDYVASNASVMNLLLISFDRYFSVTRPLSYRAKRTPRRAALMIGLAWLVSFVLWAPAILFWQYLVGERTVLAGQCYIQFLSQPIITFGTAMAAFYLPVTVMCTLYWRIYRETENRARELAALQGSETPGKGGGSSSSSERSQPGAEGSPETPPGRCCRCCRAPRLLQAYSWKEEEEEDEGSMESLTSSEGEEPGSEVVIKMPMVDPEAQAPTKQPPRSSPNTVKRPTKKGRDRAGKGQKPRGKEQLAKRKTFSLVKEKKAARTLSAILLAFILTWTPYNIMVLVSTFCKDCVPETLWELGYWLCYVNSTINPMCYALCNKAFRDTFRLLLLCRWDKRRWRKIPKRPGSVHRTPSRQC
Chain of Human serum albumin (HSA) (P02768 25-609): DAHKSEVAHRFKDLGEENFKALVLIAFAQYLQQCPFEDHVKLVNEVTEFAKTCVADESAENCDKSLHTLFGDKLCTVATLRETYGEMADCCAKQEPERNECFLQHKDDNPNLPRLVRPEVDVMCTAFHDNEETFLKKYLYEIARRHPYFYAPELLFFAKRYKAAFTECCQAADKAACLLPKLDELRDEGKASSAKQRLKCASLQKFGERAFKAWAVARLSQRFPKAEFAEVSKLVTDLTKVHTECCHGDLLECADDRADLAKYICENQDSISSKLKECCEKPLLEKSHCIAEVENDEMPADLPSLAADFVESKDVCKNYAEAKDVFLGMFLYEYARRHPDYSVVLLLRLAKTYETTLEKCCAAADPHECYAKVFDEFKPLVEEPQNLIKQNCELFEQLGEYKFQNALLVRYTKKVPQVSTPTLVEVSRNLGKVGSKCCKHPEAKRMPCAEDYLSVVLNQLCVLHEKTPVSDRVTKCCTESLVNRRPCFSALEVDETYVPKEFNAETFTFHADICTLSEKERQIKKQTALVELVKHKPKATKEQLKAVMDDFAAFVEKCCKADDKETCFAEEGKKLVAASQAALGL
T2 sequence (P08482 whole entry): as the sequence (P11229 whole entry) above, with A5V, T254S, P309S, R320K, A337G, I413V counted along it
Procedure for in vivo: This calculation was based on the brain weight (2 gr) vs. total plasma volume (14 ml).

In the case of `CC[C@@H]1SC2(CCNCC2)NC1=O` [AF292, (S)-2-Ethyl-1-thia-4,8-diaza-spiro[4.5]decan-3-one], the “AA release vs. CCh, M1 mAChR” value at M1 mAChR is > 88%. Moreover, at rat M1 mAChR, the “PI turnover vs. CCh, rat M1 mAChR” value was “PI, rat M1 mAChR; 50%”. Moreover, the Reversal learning result in the data set with aged rats is recorded as “did not reach significance”. For the same compound, in the data set on aged rats (both doses (1 and 0.5 mg/kg, po)), the “Probe trial, memory” value was “tendency for partial spatial bias”. Moreover, in data set [1], the half-life is > 1.67 h. Further, in data set [2], the “Protein Binding” value is “Human serum albumin (HSA) = 22%”. In addition, in [3] (po, Dogs, 5 mg/kg), the AUC(0-inf) came to 4650 ng·h/mL, the Cmax amounted to 1190 ng/mL, the MRT was found to be 4.85 h and the Tmax was found to be 0.8 h. In data set [3] (po, Dogs, 5 mg/kg), this compound gave a half-life of 2.04 h. This compound came in with a Retention latency with AF64A-injected rats (1mg/kg p.o.) of 447 ± 46.8 s. Besides, in the data set on AF64A-injected rats, the Minimal effective dose entry is “below 1 mg/kg”.

Consider `CC1=NCC2(CCN(C)CC2)S1` [AF150(S), 2,8-Dimethyl-1-thia-3,8-diaza-spiro[4.5]dec-2-ene], for which the tau-1 immunoreactivity result with tau protein is reported as “effective in elevating tau immunoreactivity”. Besides, the NSS in data set [4] (setting [5]) is given as 8.00+/−0.21. Moreover, the NSS in data set [4] (1 mg/kg ip, 24 h) is given as 4.30+/−0.26. In data set [4] (1 mg/kg ip, 48 h), the NSS is reported as 2.90+/−0.3. For the same compound, in the data set with C57BL/10SnJ (B10) mice, the “Training, escape latency” value is recorded as “positively affected”; the “Training, path length” value is on record as “positively affected”; the “Reversal test, escape latency” value is on record as “improved the escape latency”; the “Training, swimming speed” value is “enhancing effect of AF150(S) was equal in both doses”. The “Transfer test, spatial bias” value in the data set on C57BL/10SnJ (B10) mice is reported as “complete spatial bias”. For the same compound, in the data set “in vivo”, the Tmax was in the range of 0.0167 to 0.167 h.

As for `CC[C@@H]1SC2(CCN(C)CC2)NC1=O` [AF267B, (S)-2-ethyl-8-methyl-1-thia-4,8-diaza-spiro[4.5]decan-3-one], in the data set with tau protein, the tau-1 immunoreactivity entry is “effective in elevating tau immunoreactivity”. Moreover, the “AA release vs. CCh, M1 mAChR” value at M1 mAChR stood at 100%. On rat M1 mAChR, the “PI turnover vs. CCh, rat M1 mAChR” value is recorded as “PI, rat M1 mAChR: 75%”. Besides, the NSS in data set [4] (setting [5]) is recorded as 7.89+/−0.26. In addition, in [4] (1 mg/kg ip, 24 h), the NSS was 3.67+/−0.24. In addition, the NSS in data set [4] (1 mg/kg ip, 48 h) is 2.89+/−0.26. Further, the “Balance test (beam walk)” value in data set [4] (24 h (3 cm)) stood at 22%. Also, the “Balance test (beam walk)” value in [4] (48 h (2 cm)) came out at 33%. Also, in the data set on C57BL/10SnJ (B10) mice, the “Training, escape latency” value is reported as “positively affected”; the “Training, path length” value was “positively affected”; the “Reversal test, escape latency” value is “improved the escape latency”; the “Training, swimming speed” value is “enhanced the swimming speed in a dose dependent manner”. In addition, the “Transfer test, spatial bias” value in the data set on C57BL/10SnJ (B10) mice is “complete spatial bias”. Moreover, in the data set on aged rats (1 mg/kg), the Learning result was “tendency for improvement”. In addition, the Reversal learning entry with aged rats was “improved significantly the reversal learning”. For the same compound, the Swimming ability result in the data set with aged rats (rat, in vivo) is reported as “no significant effect on the swimming ability”. The half-life in [1] was > 1.67 h. Besides, the “Protein Binding” value in data set [2] was “HSA = 32%”. In data set [3] (setting [6]), the AUC(0-inf) was 2760 ng·h/mL and the maximum concentration (Cmax) is 1080 ng/mL. Further, in data set [3] (po, Dogs., 1 mg/kg), the AUC(0-inf) was 552 ng·h/mL, the peak level (Cmax) was 257 ng/mL, the MRT was found to be 1.96 h and the Tmax was in the range of 0.58 to 0.75 h. Also, the half-life in [3] (po, Dogs., 1 mg/kg) was 1.33 h. Besides, in the data set “in vivo”, the MRT is 2.13 h and the time of peak concentration (Tmax) lay within 0.333 to 0.5 h. Further, the Retention latency in the data set with AF64A-injected rats (0.03 mg/kg p.o.) was determined as 105.7 ± 31.9 s. In the data set on AF64A-injected rats (0.1 mg/kg p.o.), this compound registered a Retention latency of 440.7 ± 46.4 s. Also, the Minimal effective dose result in the data set with AF64A-injected rats is “less than 0.1 mg/kg”.
